# Entries after “also recorded” stand apart in the source; their conditions may differ.
# Tests used:
# [1] = biological target: PMEL17 TCR (TRAV21 TRBV7-3); assay: SPR affinity analysis of PMEL17 TCR binding to HLA-A*0201-peptide complexes; set-up: species or system Human; conditions: SPR equilibrium analysis, triplicate; for PMEL17 TCR (TRAV21 TRBV7-3), affinity KD: biotinylated HLA-A*0201-peptide complex (500–600 RU) on streptavidin CM5 chip, 9–10 serial dilutions of soluble TCR
# [2] = test system: gp100 TCR-transduced CD8+ T-cells; assay: MIP-1β production by ELISA after stimulation with peptide-pulsed T2 target cells; assay type: cell-based, Human; conditions: peptide titration; 6 × 10^4 T2 cells pulsed 1 h + 3 × 10^4 T-cells, overnight; ELISA of supernatant; duplicate; Fig. 6A
# [3] = test system: gp100 TCR-transduced CD8+ T-cells; assay: 4-h 51Cr release cytotoxicity assay against peptide-pulsed T2 targets; assay type: cell-based, Human; conditions: 37 °C, effector/target ratio 5, 51Cr-labelled T2 cells, peptide titration, duplicate, Fig. 6B
# [4] = test system: gp100-specific TCR-transfected human T-cells; conditions: cited from earlier work
# From the text: Thus, in order to study the individual contribution of the peptide residues invo ... || We also provide insight into the role of each residue in gp100^280–288 during TCR recognition by performing an alanine scan mutagenesis with two different gp100^280–288-specific αβTCRs. […] These observations are consisten ...
# [5] = biological target: gp100 TCR (TRAV17 TRBV19); assay: SPR affinity analysis of gp100 TCR binding to HLA-A*0201-peptide complexes; set-up: species or system Human; conditions: SPR equilibrium analysis, triplicate; for gp100 TCR (TRAV17 TRBV19), affinity KD: biotinylated HLA-A*0201-peptide complex (500–600 RU) on streptavidin CM5 chip, 9–10 serial dilutions of soluble TCR
"PMEL17 TCR (TRAV21 TRBV7-3), affinity KD ([1]; listed as A2-YLE-3A)","gp100 TCR (TRAV17 TRBV19), affinity KD [5]","gp100 TCR (TRAV17 TRBV19), affinity KD ([5]; listed as A2-YLE-3A)","Kd ([1]; read-out: PMEL17 TCR (TRAV21 TRBV7-3), affinity KD, biotinylated HLA-A*0201-peptide complex on streptavidin CM5 chip) [µM]","Kd ([5]; read-out: gp100 TCR (TRAV17 TRBV19), affinity KD, biotinylated HLA-A*0201-peptide complex on streptavidin CM5 chip) [µM]",Sequence,"PMEL17 TCR (TRAV21 TRBV7-3), affinity KD [1]",MIP-1β production [2],specific lysis of peptide-pulsed target cells [3],agonist activity for a different gp100-specific TCR [4]
completely abrogated binding,No binding,completely abrogated binding,,,YLAPGPVTA [YLE-3A],complete absence of measurable binding; also recorded: No binding,No MIP-1β production,no cytotoxic T lymphocyte-mediated lysis,null agonist
,,,> 1000,> 1000,YLEPAPVTA [YLE-5A],,No MIP-1β production,no cytotoxic T lymphocyte-mediated lysis,
